The molecules below were run against T1, recombinant human MetAP2 (Homo sapiens, UniProt P50579) (assay: Inhibition of recombinant human MetAP2 activity (fluorescence, MAS substrate, amino acid oxidase/Amplex red)). Settings: manganese enzyme; 0.75 mM Methionine-Alanine-Serine (MAS) substrate; 30 minutes at 25° C.; pH 7.5; 1% DMSO.
T1 construct: made in house; host or cells: Sf9 insect cells
Assay type: biochemical
Procedure: Compounds are tested for their capacity to inhibit recombinant human MetAP2 activity using the following assay.
Human recombinant MetAP2 expressed in Sf9 cells followed by affinity purification and EDTA treatment to remove endogenous active site cation was dialysed against MnCl2 to produce the manganese enzyme used in the assay. The assay was carried out for 30 minutes at 25° C. in 50 mM HEPES buffer containing 100 mM NaCl, pH 7.5 the presence of 0.75 mM Methionine-Alanine-Serine (MAS) substrate and 50 μg/ml amino acid oxidase using a dilution of purified MetAP2 giving >3-fold signal: noise. Cleavage of the substrate by MetAP2 and oxidation of free methionine by amino acid oxidase was detected and quantified using fluorescence generated by Amplex red (10-acetyl-3,7-dihydroxyphenoxazine) in combination with horseradish peroxidase which detects H2O2 released during the oxidation step. The fluorescent signal was detected using a multiwell fluorimeter. Compounds were diluted in DMSO prior to addition to assay buffer, the final DMSO concentration in the assay being 1%.
IC50 values are calculated using the XLfit software package (version 2.0.5).

T1 sequence (P50579 whole entry): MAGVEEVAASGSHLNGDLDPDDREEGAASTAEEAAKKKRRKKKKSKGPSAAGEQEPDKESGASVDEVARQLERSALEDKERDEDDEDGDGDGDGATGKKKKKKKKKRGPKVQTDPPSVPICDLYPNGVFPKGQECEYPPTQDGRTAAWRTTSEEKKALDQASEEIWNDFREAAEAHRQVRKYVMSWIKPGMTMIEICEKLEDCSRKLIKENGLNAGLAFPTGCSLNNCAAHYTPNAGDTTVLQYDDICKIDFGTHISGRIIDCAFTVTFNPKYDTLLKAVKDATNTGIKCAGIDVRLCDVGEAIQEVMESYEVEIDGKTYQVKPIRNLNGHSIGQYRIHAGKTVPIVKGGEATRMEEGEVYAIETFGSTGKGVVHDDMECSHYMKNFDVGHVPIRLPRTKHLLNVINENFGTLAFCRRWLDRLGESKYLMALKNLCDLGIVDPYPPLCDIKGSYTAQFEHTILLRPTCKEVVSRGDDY

| SMILES | IC50 [nM] |
| --- | --- |
| CCN1CC[C@@H](C(=O)NCc2cc(F)ccc2S(=O)(=O)Nc2ccc3c(c2C(=O)O)OC[C@@H]2C[C@H]32)C1 (mixture of isomers) [(1aRS,7bSR)-5-(2-{[((R)-1-Ethylpyrrolidine-3-carbonyl)amino]-methyl}-4-fluoro-benzenesulfonylamino)-1,1a,2,7b-tetrahydro-cyclopropa[c]chromene-4-carboxylic acid] | 50 to 500 |
| CCN1CC[C@@H](Cc2cc(F)ccc2S(=O)(=O)Nc2ccc3c(c2C(=O)O)OC[C@@H]2C[C@H]32)C1 (mixture of isomers) [(1aRS,7bSR)-5-[2-((R)-1-Ethylpyrrolidin-3-ylmethyl)-4-fluorobenzenesulfonyl-amino]-1,1a,2,7b-tetrahydro-cyclopropa[c]chromene-4-carboxylic acid] | < 50 |
| CCN1CC[C@H](Cc2cc(F)ccc2S(=O)(=O)Nc2ccc3c(c2C(=O)O)OC[C@@H]2C[C@H]32)C1 (mixture of isomers) [(1aRS,7bSR)-5-[2-((S)-1-Ethyl-pyrrolidin-3-ylmethyl)-4-fluorobenzenesulfonyl-amino]-1,1a,2,7b-tetrahydrocyclopropa[c]chromene-4-carboxylic acid] | 50 to 500 |
| CCN1CC[C@@H](CCNc2ccccc2S(=O)(=O)Nc2ccc3c(c2C(=O)O)OC[C@@H]2C[C@H]32)C1 (mixture of isomers) [(1aRS,7bSR)-5-{2-[2-((R)-1-Ethylpyrrolidin-3-yl)ethylamino]-benzenesulfonylamino}-1,1a,2,7b-tetrahydrocyclopropa-[c]chromene-4-carboxylic acid] | 50 to 500 |
| CCN1CCC[C@H]1CCNc1ccccc1S(=O)(=O)Nc1ccc2c(c1C(=O)O)OC[C@@H]1C[C@H]21 (mixture of isomers) [(1aRS,7bSR)-5-{2-[2-((S)-1-Ethylpyrrolidin-2-yl)ethylamino]-benzenesulfonyl-amino}-1,1a,2,7b-tetrahydrocyclopropa-[c]chromene-4-carboxylic acid] | < 50 |
| CCN1CC[C@H](CCNc2ccccc2S(=O)(=O)Nc2ccc3c(c2C(=O)O)OC[C@@H]2C[C@H]32)C1 (mixture of isomers) [(1aRS,7bSR)-5-{2-[2-((S)-1-Ethylpyrrolidin-3-yl)ethylamino]-benzenesulfonyl-amino}-1,1a,2,7b-tetrahydrocyclopropa-[c]chromene-4-carboxylic acid] | 50 to 500 |
| CCN1CC[C@@H](Nc2ccccc2S(=O)(=O)Nc2ccc3c(c2C(=O)O)OC[C@@H]2C[C@H]32)C1 (mixture of isomers) [(1aRS,7bSR)-5-{2-[((R)-1-Ethylpyrrolidin-3-yl)amino]-benzenesulfonylamino}-1,1a,2,7b-tetrahydrocyclopropa-[c]chromene-4-carboxylic acid] | 50 to 500 |
| CCN1CC[C@H](CNc2ccccc2S(=O)(=O)Nc2ccc3c(c2C(=O)O)OC[C@@H]2C[C@H]32)C1 (mixture of isomers) [(1aRS,7bSR)-5-{2-[((R)-1-Ethylpyrrolidin-3-ylmethyl)amino]-benzenesulfonylamino}-1,1a,2,7b-tetrahydrocyclopropa-[c]chromene-4-carboxylic acid] | 50 to 500 |
| CCN1CCCC1C(=O)NCc1cc(F)ccc1S(=O)(=O)Nc1ccc2c(c1C(=O)O)OCC1CC21 (mixture of isomers) [(1aRS,7bSR)-5-{2-[((S)-1-Ethylpyrrolidin-2-yl)cabonyl-aminomethyl]-4-fluorobenzenesulfonylamino}-1,1a,2,7b-tetrahydrocyclopropa[c]chromene-4-carboxylic acid] | < 50 |
| CCN1CC[C@@H](CNc2ccccc2S(=O)(=O)Nc2ccc3c(c2C(=O)O)OC[C@@H]2C[C@H]32)C1 (mixture of isomers) [(1aRS,7bSR)-5-{2-[((S)-1-Ethylpyrrolidin-3-ylmethyl)amino]-benzenesulfonylamino}-1,1a,2,7b-tetrahydrocyclopropa-[c]chromene-4-carboxylic acid] | 50 to 500 |
| CCN1CC[C@H](C(=O)NCc2cc(F)ccc2S(=O)(=O)Nc2ccc3c(c2C(=O)O)OCC2CC32)C1 (mixture of isomers) [(1aRS,7bSR)-5-(2-{[((S)-1-ethylpyrrolidine-3-carbonyl)amino]methyl}-4-fluoro-benzenesulfonylamino)-1,1a,2,7b-tetrahydrocyclopropa[c]chromene-4-carboxylic acid] | 50 to 500 |
| CCNC/C=C\c1cc(F)ccc1S(=O)(=O)Nc1ccc2c(c1C(=O)O)OC[C@@H]1C[C@H]21 (racemic) [(1aRS,7bSR)-5-[2((Z)-3-Ethylaminoprop-1-enyl)-4-fluoro-benzenesulfonylamino]-1,1a,2,7b-tetrahydrocyclopropa-[c]chromene-4-carboxylic acid] | < 50 |
| CCN1CCC(Cc2cc(F)ccc2S(=O)(=O)Nc2ccc3c(c2C(=O)O)OC[C@@H]2C[C@H]32)CC1 (racemic) [(1aRS,7bSR)-5-[2-(1-Ethylpiperidin-4-ylmethyl)-4-fluoro-benzenesulfonylamino]-1,1a,2,7b-tetrahydrocyclopropa-[c]chromene-4-carboxylic acid] | < 50 |
| CN(C)CCCNc1ccccc1S(=O)(=O)Nc1ccc2c(c1C(=O)O)OC[C@@H]1C[C@H]21 (racemic) [(1aRS,7bSR)-5-[2-(3-Dimethylaminopropylamino)benzene-sulfonylamino]-1,1a,2,7b-tetrahydrocyclopropa[c]chromene-4-carboxylic acid] | < 50 |
| CN(C)CCCNC(=O)c1ccccc1S(=O)(=O)Nc1ccc2c(c1C(=O)O)OC[C@@H]1C[C@H]21 (racemic) [(1aRS,7bSR)-5-[2-(3-Dimethylaminopropylcarbamoyl)benzene-sulfonylamino]-1,1a,2,7b-tetrahydrocyclopropa[c]chromene-4-carboxylic acid] | 50 to 500 |
| CN(C)CCCCNc1cc(F)ccc1S(=O)(=O)Nc1ccc2c(c1C(=O)O)OC[C@@H]1C[C@H]21 (racemic) [(1aRS,7bSR)-5-[2-(4-Dimethylaminobutylamino)-4-fluoro-benzenesulfonyl-amino]-1,1a,2,7b-tetrahydrocyclopropa-[c]chromene-4-carboxylic acid] | 50 to 500 |
| CN(C)CCCC(=O)Nc1cc(F)ccc1S(=O)(=O)Nc1ccc2c(c1C(=O)O)OC[C@@H]1C[C@H]21 (racemic) [(1aRS,7bSR)-5-[2-(4-Dimethylaminobutyrylamino)-4-fluorobenzenesulfonyl-amino]-1,1a,2,7b-tetrahydrocyclopropa-[c]chromene-4-carboxylic acid] | 50 to 500 |

The remaining lines, values ahead:

| IC50 [nM] | SMILES |
| --- | --- |
| 50 to 500 | CCN1CCC[C@@H]1C(=O)NCc1cc(F)ccc1S(=O)(=O)Nc1ccc2c(c1C(=O)O)OC[C@@H]1C[C@H]21 (mixture of isomers) [(1aRS,7bSR)-5-(2-{[((R)-1-Ethylpyrrolidine-2-yl)carbonyl-amino]methyl}-4-fluorobenzenesulfonylamino)-1,1a,2,7b-tetrahydrocyclopropa[c]chromene-4-carboxylic acid] |
| < 50 | CCN1CCC[C@@H]1CCNc1ccccc1S(=O)(=O)Nc1ccc2c(c1C(=O)O)OC[C@@H]1C[C@H]21 (mixture of isomers) [(1aRS,7bSR)-5-{2-[2-((R)-1-Ethylpyrrolidin-2-yl)ethylamino]-benzenesulfonyl-amino}-1,1a,2,7b-tetrahydrocyclopropa-[c]chromene-4-carboxylic acid] |
| 50 to 500 | CCN1CC[C@@H](NCCc2cc(F)ccc2S(=O)(=O)Nc2ccc3c(c2C(=O)O)OC[C@@H]2C[C@H]32)C1 (mixture of isomers) [(1aRS,7bSR)-5-{2-[2-((R)-1-Ethylpyrrolidin-3-ylamino)ethyl]-4-fluoro-benzenesulfonylamino}-1,1a,2,7b-tetrahydrocyclopropa-[c]chromene-4-carboxylic acid] |
| 50 to 500 | CCN1CC[C@H](Nc2ccccc2S(=O)(=O)Nc2ccc3c(c2C(=O)O)OC[C@@H]2C[C@H]32)C1 (mixture of isomers) [(1aRS,7bSR)-5-{2-[((S)-1-Ethylpyrrolidin-3-yl)amino]-benzenesulfonylamino}-1,1a,2,7b-tetrahydrocyclopropa-[c]chromene-4-carboxylic acid] |
| 50 to 500 | CCN1CC[C@H](NC(=O)Cc2cc(F)ccc2S(=O)(=O)Nc2ccc3c(c2C(=O)O)OC[C@@H]2C[C@H]32)C1 (mixture of isomers) [(1aRS,7bSR)-5-{2-[((S)-1-Ethylpyrrolidin-3-ylcarbamoyl)-methyl]-4-fluoro-benzenesulfonyl-amino}-1,1a,2,7b-tetrahydrocyclopropa-[c]chromene-4-carboxylic acid] |
| 50 to 500 | CCN1CCC[C@@H]1C(=O)N(C)Cc1cc(F)ccc1S(=O)(=O)Nc1ccc2c(c1C(=O)O)OCC1CC21 (mixture of isomers) [(1aRS,7bSR)-5-(2-{N-[((R)-1-Ethylpyrrolidine-2-yl)carbonyl]-N-methylaminomethyl}-4-fluorobenzenesulfonylamino)-1,1a,2,7b-tetrahydrocyclopropa[c]chromene-4-carboxylic acid] |
| 50 to 500 | CCN1CC(c2cc(F)ccc2S(=O)(=O)Nc2ccc3c(c2C(=O)O)OC[C@@H]2C[C@H]32)C1 (racemic) [(1aRS,7bSR)-5-[2-(1-Ethylazetidin-3-yl)-4-fluorobenzene-sulfonylamino]-1,1a,2,7b-tetrahydro-cyclopropa[c]chromene-4-carboxylic acid] |
| < 50 | CN(C)CCCCNc1ccccc1S(=O)(=O)Nc1ccc2c(c1C(=O)O)OC[C@@H]1C[C@H]21 (racemic) [(1aRS,7bSR)-5-[2-(4-Dimethylaminobutylamino)benzene-sulfonylamino]-1,1a,2,7b-tetrahydrocyclopropa[c]chromene-4-carboxylic acid] |
